Assays:
[1] = Outcome variables of patients on each psychotropic drug broken down by demographic factors (Covariates tables); type: in vivo, human
[2] = Physiogenomic SNP association screen: single-SNP coefficients for metabolic syndrome outcomes in patients on psychotropic drugs
Source text: Various SNPs associated with, for example, the observation of various parameters of metabolic syndromes in patients on psychotropic drugs were screened. The endpoints analyzed were the blood levels of LDL, HDL, and glucose; blood pressure; body mass index; waist circumference; and metabolic syndromes index. The physiogenomic model was developed using the following procedure: 1) Establish a covariate model using only the demographic and clinical variables, 2) Screen for associated genetic markers by testing each SNP against the unexplained residual of the covariate model, and 3) Establish a revised model incorporating the significant associations from the SNP screen. All models are simple linear regression models, but other well-known statistical methods are contemplated to be useful.
In the SNP screen (step 2), the p-values for each SNP were obtained by adding the SNP to the covariate model and comparing the resulting model improvement with up to 10,000 simulated model improvements using the same data set, but with the genotype data randomly permuted to remove any true association. This method produces a p-value that is a direct, unbiased, and model-free estimate of the probability of finding a model as good as the one tested when the null hypothesis of no association is true. All SNPs with a screening p-value of better than 0.003 were selected to be included in the physiogenomic model (step 3).
Data Analysis. Covariates were analyzed using multiple linear regression and the stepwise procedure. An extended linear model was constructed including the significant covariate and the SNP genotype. SNP genotype was coded quantitatively as a numerical variable indicating the number of minor alleles: 0 for major homozygotes, 1 for heterozygotes, and 2 for minor homozygotes. The F-statistic p-value for the SNP variable was used to evaluate the significance of association. The validity of the p-values were tested by performance of an independent calculation of the p-values using permutation testing. To account for the multiple testing of multiple SNPs, adjusted p-values were calculated using Benjamini and Hochbergs false discovery rate (FDR) procedure [Reinere A, Yekutiele D, Benjamini Y: Identifying differentially expressed genes using false discovery rate controlling procedures. Bioinformatics 19:368-375 (2003); Benjamini Y, Hochberg Y: Controlling the false discovery rate: a practical and powerful approach to multiple testing. Journal of the Royal Statistical Society, Series B 57:289-300 (1995); Benjamini Y, Hochberg Y: On the adaptive control of the false discovery rate in multiple testing with independent statistics. Journal of Educational and Behavioral Statistics 25:60-83 (2000)]. In addition, the power for detecting an association based on the Bonferroni multiple comparison adjustment was evaluated. For each SNP, the effect size in standard deviations that was necessary for detection of an association at a power of 80% (20% false negative rate) was calculated using the formula: […]

## OCCOCCN1CCN(C2=Nc3ccccc3Sc3ccccc32)CC1 [Quetiapine, quetiapine]
[1]; Age 20-30
  LDL (LDL cholesterol level): 91.35
[1]; Age 30-40
  LDL (LDL cholesterol level): 102.92
[1]; Age 40-50
  LDL (LDL cholesterol level): 94.39
[1]; Age 50-60
  LDL (LDL cholesterol level): 97.33
[1]; Age 60-70
  LDL (LDL cholesterol level): 88.00
[1]; Age <20
  LDL (LDL cholesterol level): 87.40
[1]; All patients on the drug
  LDL (LDL cholesterol level): 96.71
[1]; Gender female
  LDL (LDL cholesterol level): 92.89
[1]; Gender male
  LDL (LDL cholesterol level): 99.19
[1]; Heritage AA
  LDL (LDL cholesterol level): 94.38
[1]; Heritage Cauc.
  LDL (LDL cholesterol level): 96.93
[1]; human, in vivo
  BM: 87.05
  BMI: 29.44
  Glucose: 92.08
  HDL: 49.79
  Log (TG): 5.263
  MSI: 0.2625
  TC: 192.33
  dBP: 75.04
  sBP: 120.07
[1]; patients on the named drug
  LDL: 96.71

## Cc1nc2n(c(=O)c1CCN1CCC(c3noc4cc(F)ccc34)CC1)CCCC2 [Risperidone, risperidone]
[1]; Age 20-30
  BM: 77.82
  BMI: 25.55
  Glucose: 85.42
  HDL: 43.50
  LDL: 93.20
  TC: 166.80
  Waist: 92.78
  dBP: 75.20
  log (TG): 4.801
  sBP: 116.80
[1]; Age 30-40
  BM: 77.98
  BMI: 25.60
  Glucose: 93.38
  HDL: 52.19
  LDL: 92.69
  TC: 185.54
  Waist: 92.34
  dBP: 76.77
  log (TG): 5.129
  sBP: 118.04
[1]; Age 40-50
  BM: 77.81
  BMI: 25.80
  Glucose: 95.03
  HDL: 52.00
  LDL: 100.78
  TC: 181.71
  Waist: 97.23
  dBP: 75.10
  log (TG): 4.888
  sBP: 115.73
[1]; Age 50-60
  BM: 76.52
  BMI: 29.45
  Glucose: 109.00
  HDL: 59.50
  LDL: 85.80
  TC: 185.70
  Waist: 100.50
  dBP: 74.20
  log (TG): 5.182
  sBP: 123.80
[1]; Age 60-70
  BM: 87.60
  BMI: 26.40
  Glucose: 103.00
  HDL: 54.00
  LDL: 111.00
  TC: 191.00
  Waist: 103.00
  dBP: 80.00
  log (TG): 4.875
  sBP: 118.00
[1]; Age <20
  BM: 97.73
  BMI: 28.93
  Glucose: 91.67
  HDL: 60.00
  LDL: 113.00
  TC: 197.33
  Waist: 110.33
  dBP: 71.33
  log (TG): 4.778
  sBP: 123.33
[1]; All
  BM: 78.42
  BMI: 26.16
  Glucose: 94.14
  HDL: 51.37
  LDL: 96.18
  TC: 180.69
  Waist: 95.90
  dBP: 75.40
  log (TG): 4.958
  sBP: 117.58
[1]; Gender female
  BM: 73.38
  BMI: 27.05
  Glucose: 91.57
  HDL: 55.74
  LDL: 94.32
  TC: 179.74
  Waist: 95.39
  dBP: 74.74
  log (TG): 4.861
  sBP: 116.84
[1]; Gender male
  BM: 81.45
  BMI: 25.62
  Glucose: 95.68
  HDL: 48.73
  LDL: 97.30
  TC: 181.27
  Waist: 96.20
  dBP: 75.79
  log (TG): 5.017
  sBP: 118.03
[1]; Heritage AA
  BM: 80.46
  BMI: 27.14
  Glucose: 115.56
  HDL: 58.50
  LDL: 95.50
  TC: 173.80
  Waist: 92.90
  dBP: 78.00
  log (TG): 4.478
  sBP: 117.80
[1]; Heritage Cauc.
  BM: 78.19
  BMI: 26.05
  Glucose: 92.00
  HDL: 50.58
  LDL: 96.25
  TC: 181.45
  Waist: 96.23
  dBP: 75.11
  log (TG): 5.011
  sBP: 117.56
[1]; patients on the named drug
  BM: 78.42
  BMI: 26.16
  Glucose: 94.14
  HDL: 51.37
  LDL: 96.18
  Log (TG): 4.958
  TC: 180.69
  Waist: 95.90
  dBP: 75.40
  sBP: 117.58

## O=C1Cc2cc(CCN3CCN(c4nsc5ccccc45)CC3)c(Cl)cc2N1 [Ziprasidone, ziprasidone]
[1]; Age 20-30
  LDL: 79.20
[1]; Age 30-40
  LDL: 98.42
[1]; Age 40-50
  LDL: 75.18
[1]; Age 50-60
  LDL: 135.00
[1]; Age 60-70
  LDL: 154.00
[1]; Age <20
  LDL: 89.50
[1]; All
  LDL: 88.32
[1]; Gender female
  LDL: 98.11
[1]; Gender male
  LDL: 79.05
[1]; Heritage AA
  LDL: 63.17
[1]; Heritage Cauc.
  LDL: 93.19
[1]; human, in vivo
  Log (TG): 4.968
[1]; patients on the named drug
  LDL: 88.32
[2]; SNP rs40318, gene PIK3R1, allele TC, p 4.80E−02
  Coeff. LDL Cholesterol: 22.72
[2]; SNP rs1322783, gene DISC1, allele TC, p 1.26E−02
  Coeff. LDL Cholesterol: −27.8566
[2]; SNP rs1614845, gene HRH3, allele TC, p 4.20E−02
  Coeff. LDL Cholesterol: −21.1697
[2]; SNP rs1951795, gene HIF1A, allele AC, p 2.81E−02
  Coeff. LDL Cholesterol: 17.21
[2]; SNP rs2067477, gene CHRM1, allele AC, p 4.47E−02
  Coeff. LDL Cholesterol: −23.7833
[2]; SNP rs2228139, gene IL1R1, allele GC, p 1.74E−02
  Coeff. LDL Cholesterol: −42.4134
[2]; SNP rs2269935, gene PFKM, allele AC, p 1.38E−02
  Coeff. LDL Cholesterol: −29.0481
[2]; SNP rs2301108, gene HIF1A, allele AG, p 4.60E−03
  Coeff. LDL Cholesterol: 27.41
[2]; SNP rs2856929, gene PKM2, allele AG, p 2.55E−02
  Coeff. LDL Cholesterol: −21.0303
[2]; SNP rs3757868, gene ACHE, allele AG, p 2.11E−02
  Coeff. HDL Cholesterol: 9.221
[2]; SNP rs3757868, gene ACHE, allele AG, p 2.47E−02
  Coeff. Ratio of Total Cholesterol to HDL Cholesterol: −0.8869
[2]; SNP rs3816873, gene MTP, allele TC, p 2.73E−02
  Coeff. LDL Cholesterol: −19.1531
[2]; SNP rs6700734, gene TNFSF6, allele AG, p 1.15E−02
  Coeff. LDL Cholesterol: 21.53
[2]; SNP rs6967107, gene WBSCR14, allele AC, p 5.00E−02
  Coeff. LDL Cholesterol: −28.3763
[2]; SNP rs6976017, gene CYP3A5, allele AG, p 4.34E−03
  Coeff. LDL Cholesterol: −45.408
[2]; SNP rs7816340, gene ADRA1A, allele TC, p 4.22E−02
  Coeff. LDL Cholesterol: 24.97
[2]; SNP rs10082776, gene RARG, allele AG, p 1.92E−02
  Coeff. LDL Cholesterol: −24.15
